Data from publication doi:10.1101/2021.06.10.447852v1 (biorxiv, 2021).

What follows are compounds tested on EZH2 (methyltransferase component of PRC2) (assay: cells). Conditions: Homo sapiens, HEK-293T, 48 h, read-out: Cell IC50 (H3K27me3) (nM).

Row | IC50 [nM] | Compound
1 | 6 | CSc1cc(C)[nH]c(=O)c1CN1CCN(C)c2c(Cl)cc(-c3c(C)noc3C)c(Cl)c2C1=O [compound 21, TDI-11904]
2 | 167 | CSc1cc(C)n(C)c(=O)c1CN1CCNc2c(Cl)cc(-c3c(C)noc3C)c(Cl)c2C1=O [compound 23, 23]
3 | 1550 | CSc1cc(C)n(C)c(=O)c1CN1CCN(C)c2c(Cl)cc(-c3c(C)noc3C)c(Cl)c2C1=O [compound 22, 22]
